In patent US20100256357A1, “HETEROCYCLES USEFUL AS INHIBITORS OF CARBONIC ANHYDRASE” (Agouron Pharmaceuticals, Inc., priority 2006, published 2010):
Read-outs that look alike come from different tables or passages of the source.

Key:
human CA-IV = biological target: T1, human CA-IV (Homo sapiens, UniProt P22748); assay: Carbonic Anhydrase-IV (CA-IV) Fluorescence Polarization Assay-IC50 Determination; format: binding; settings: for inhibition at 0.2 µM: CA-IV Min dose 200 nM, read-out: CA-IV: % Inh @ Min dose; for IC50: read-out: CA-IV IC50
T1 construct: made in house; host or cells: Escherichia coli BL21(DE3)
Description: Carbonic Anhydrase-IV (CA-IV) Fluorescence Polarization Assay-IC50 Determination
These cells were grown in Luria broth (LB) media (Biomyx) supplemented with 800 uM ZnCl2 at 37° C. until an O.D.600 of 0.7, at which point the cells were induced with 100 uM isopropyl-beta-D-thiogalactopyranoside (IPTG) for 20 hours at 20° C. The frozen pellet was resuspended in 50mM 2-morpholinoethanesulfonic acid (MES) at pH 6.0, 100 mM NaCl, 800 uM ZnCl2 and EDTA-Free protease inhibitors (Roche). The cells were lysed with a microfluidizer, the lysate was spun at 40,000 rpm for 45 minutes at 4° C., and the soluble fraction was dialyzed overnight at 4° C. in 50 mM MES pH 6.0, and 100 mM NaCl. The soluble fraction was then put over a 100 ml SP-Sepharose High Performance (GE Healthcare) column and eluted with a 50 mM MES pH 6.0, 750 mM NaCl gradient. The peak fractions were then concentrated, via an Amicon Ultra-4 10,000 MWCO (Millipore) spin column to 2.0 mL and loaded onto a Sephacryl S-100 High Resolution (GE Healthcare) column in 25 mM tris(hydroxymethyl)aminomethane hydrochloride (Tris-HCl) pH 7.0, and 100 mM NaCl. The peak fractions were then concentrated, via an Amicon Ultra-4 10,000 MWCO (Millipore) spin column, to 7.0 mg/mL and left exposed at room temperature overnight. […] T.; et al. Carbonic Anhydrase Inhibitors. Med. Res. Rev. […]
Assays were conducted in a final volume of 100 μL in 50 mM Tris/HCl (pH 7.6), 100 mM Na2SO4 and 0.005% Tween-20 in a 96-well black assay plate.

human CA-II = biological target: T2, human CA-II (Homo sapiens, UniProt P00918); assay: Carbonic Anhydrase-II (CA-II) Fluorimetric Assay-IC50 Determination; format: biochemical; settings: for IC50: Kd ND, read-out: CA-II IC50
T2 construct: purchased Sigma-Aldrich C6165
Description: Carbonic Anhydrase-II (CA-II) Fluorimetric Assay-IC50 Determination
Compounds were diluted in DMSO at the concentration of 1 mM, then 50 μM and transferred to a 96-well plate for further dilutions (1:3 dilution, 11 points) in duplicate. Highest final concentration of compound in this CA-II Fluorimetric assay is 1 μM. Assays were conducted in a final volume of 100 μL in 50 mM Tris/HCl (pH 7.6), 100 mM Na2SO4 and 0.005% Tween-20 in a 96-well black assay plate. Fluorescein diacetate was used as the substrate. Enzyme inhibition was determined by pipetting 8 μL of human CA-II (5 nM, from Sigma-Aldrich, product #: C6165) into assay plate contained 2 μL of compound and 2 μL of substrate (10 μM) in 88 μL of assay buffer. The rate of the hydrolysis of fluorescein diacetate were measured spectrophometrically at 488 nm (excitation), 538 nm (emission) and 530 nm (cutoff) using a Molecular Devices SpectraMax M2 fluorescence reader at 25° C.

[1] = CA II Min dose 100 nM, read-out: CAII % Inh @ Min dose

T1 sequence (P22748 19-284 limits assumed): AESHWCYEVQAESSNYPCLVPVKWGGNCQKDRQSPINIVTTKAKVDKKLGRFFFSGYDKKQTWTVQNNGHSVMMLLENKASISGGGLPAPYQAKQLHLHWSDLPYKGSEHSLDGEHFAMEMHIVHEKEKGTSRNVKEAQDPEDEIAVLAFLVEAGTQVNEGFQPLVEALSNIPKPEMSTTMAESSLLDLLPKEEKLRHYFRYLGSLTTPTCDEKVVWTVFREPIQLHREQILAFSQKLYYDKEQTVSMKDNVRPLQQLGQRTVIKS

**Q.** For `NS(=O)(=O)c1ccc(-n2nc(C(=O)N3CCOc4ccccc4C3)nc2Cc2ccccc2)cc1` [Example R-7, 4-[5-benzyl-3-(23-dihydro-14-benzoxazepin-4(5H)-ylcarbonyl)-1H-124-triazol-1-yl]benzenesulfonamide], which inhibition at 0.2 µM (human CA-IV) is on record?
**A.** Its inhibition at 0.2 µM is 59.1%.

**Q.** What about the IC50 (human CA-IV) of the same molecule?
**A.** The IC50 was 182 nM.

**Q.** What about the inhibition at 0.1 µM (human CA-II; [1]) of the same molecule?
**A.** Its inhibition at 0.1 µM is 101%.

**Q.** What about the IC50 (human CA-II) of the same molecule?
**A.** The IC50 was 3.68 nM.

**Q.** For `CN(C(=O)c1nc(Cc2ccccc2)n(-c2ccc(S(N)(=O)=O)cc2)n1)C1CCCCC1` [Example R-25, 1-[4-(aminosulfonyl)phenyl]-5-benzyl-N-cyclohexyl-N-methyl-1H-124-triazole-3-carboxamide], which inhibition at 0.2 µM (human CA-IV) is on record?
**A.** Its inhibition at 0.2 µM is 69.3%.

**Q.** What about the IC50 (human CA-IV) of the same molecule?
**A.** Its IC50 is 385 nM.

**Q.** And the inhibition at 0.1 µM (human CA-II; [1])?
**A.** The inhibition at 0.1 µM was 101%.

**Q.** What about the IC50 (human CA-II) of the same molecule?
**A.** Its IC50 is 2.51 nM.

**Q.** `NS(=O)(=O)c1ccc(-n2nc(C(=O)N3CCCCC3)nc2Cc2ccccc2)cc1` [Example R-24, 4-[5-benzyl-3-(piperidin-1-ylcarbonyl)-1H-124-triazol-1-yl]benzenesulfonamide] was tested. Which inhibition at 0.2 µM (human CA-IV) did it give?
**A.** Its inhibition at 0.2 µM is 48.6%.

**Q.** What about the IC50 (human CA-IV) of the same molecule?
**A.** Its IC50 is 360 nM.

**Q.** And the inhibition at 0.1 µM (human CA-II; [1])?
**A.** The inhibition at 0.1 µM was 99%.

**Q.** And the IC50 (human CA-II)?
**A.** The IC50 was 3.73 nM.

**Q.** What does the source list for `NS(=O)(=O)c1ccc(-n2nc(C(=O)NCC3(c4ccccc4)CC3)nc2Cc2ccccc2)cc1` [Example R-12, 1-[4-(aminosulfonyl)phenyl]-5-benzyl-N-[(1-phenylcyclopropyl)methyl]-1H-124-triazole-3-carboxamide]?
**A.** inhibition at 0.2 µM (human CA-IV): 62.3%; IC50 (human CA-IV): 206 nM; inhibition at 0.1 µM (human CA-II; [1]): 101%; inhibition at 0.1 µM (human CA-II; read-out: CA-II % at 100 nM): 101%

**Q.** What does the source list for `CCCCCN(CCO)C(=O)c1nc(Cc2ccccc2)n(-c2ccc(S(N)(=O)=O)cc2)n1` [Example R-16, 1-[4-(aminosulfonyl)phenyl]-5-benzyl-N-(2-hydroxyethyl)-N-pentyl-1H-124-triazole-3-carboxamide]?
**A.** inhibition at 0.2 µM (human CA-IV): 61.3%; IC50 (human CA-IV): 220 nM; inhibition at 0.1 µM (human CA-II; [1]): 100%; inhibition at 0.1 µM (human CA-II; read-out: CA-II % at 100 nM): 100%

**Q.** What does the source list for `CC(=O)N1CCCN(C(=O)c2nc(Cc3ccccc3)n(-c3ccc(S(N)(=O)=O)cc3)n2)CC1` [Example R-18, 4-(3-[(4-acetyl-14-diazepan-1-yl)carbonyl]-5-benzyl-1H-124-triazol-1-yl)benzenesulfonamide]?
**A.** inhibition at 0.2 µM (human CA-IV): 56.9%; IC50 (human CA-IV): 274 nM; inhibition at 0.1 µM (human CA-II; [1]): 96%; inhibition at 0.1 µM (human CA-II; read-out: CA-II % at 100 nM): 98%

**Q.** What does the source list for `NS(=O)(=O)c1ccc(-n2nc(C(=O)N3CC4CCC3C4)nc2Cc2ccccc2)cc1` (centres unmarked) [Example R-8, 4-[3-(2-azabicyclo[2.2.1]hept-2-ylcarbonyl)-5-benzyl-1H-124-triazol-1-yl]benzenesulfonamide]?
**A.** inhibition at 0.2 µM (human CA-IV): 56.9%; IC50 (human CA-IV): 194 nM; inhibition at 0.1 µM (human CA-II; [1]): 99%; inhibition at 0.1 µM (human CA-II; read-out: CA-II % at 100 nM): 99%

**Q.** Which inhibition at 0.2 µM (human CA-IV) does the source give for `CN(CCC#N)C(=O)c1nc(Cc2ccccc2)n(-c2ccc(S(N)(=O)=O)cc2)n1` [Example R-10] here?
**A.** The inhibition at 0.2 µM was 58%.

**Q.** What about the IC50 (human CA-IV) of the same molecule?
**A.** The IC50 was 202 nM.

**Q.** And the inhibition at 0.1 µM (human CA-II; [1])?
**A.** The inhibition at 0.1 µM was 99%.

**Q.** What about the inhibition at 0.1 µM (human CA-II; read-out: CA-II % at 100 nM) of the same molecule?
**A.** The inhibition at 0.1 µM was 99%.

**Q.** What does the source list for `CCCCN(CC)C(=O)c1nc(Cc2ccccc2)n(-c2ccc(S(N)(=O)=O)cc2)n1` [Example R-14, 1-(4-(aminosulfonyl)phenyl]-5-benzyl-N-butyl-N-ethyl-1H-124-triazole-3-carboxamide]?
**A.** inhibition at 0.2 µM (human CA-IV): 59.7%; IC50 (human CA-IV): 215 nM; inhibition at 0.1 µM (human CA-II; [1]): 100%; inhibition at 0.1 µM (human CA-II; read-out: CA-II % at 100 nM): 100%

**Q.** Which results are given for `NS(=O)(=O)c1ccc(-n2nc(C(=O)N3CC(Oc4ccccc4)C3)nc2Cc2ccccc2)cc1` [Example R-15, 4-(5-benzyl-3-[(3-phenoxyazetidin-1-yl)carbonyl]-1H-124-triazol-1-yl)benzenesulfonamide]?
**A.** inhibition at 0.2 µM (human CA-IV): 60.9%; IC50 (human CA-IV): 220 nM; inhibition at 0.1 µM (human CA-II; [1]): 96%; inhibition at 0.1 µM (human CA-II; read-out: CA-II % at 100 nM): 96%

**Q.** Which inhibition at 0.2 µM (human CA-IV) does the source give for `NS(=O)(=O)c1ccc(-n2nc(C(=O)N3CCc4ccccc4CC3)nc2Cc2ccccc2)cc1` [Example R-4, 4-[5-benzyl-3-(1245-tetrahydro-3H-3-benzoazepin-3-ylcarbonyl)-1H-124-triazol-1-yl]benzenesulfonamide] here?
**A.** The inhibition at 0.2 µM was 74.3%.

**Q.** And the IC50 (human CA-IV)?
**A.** The IC50 was 115 nM.

**Q.** And the inhibition at 0.1 µM (human CA-II; [1])?
**A.** Its inhibition at 0.1 µM is 100%.

**Q.** And the IC50 (human CA-II)?
**A.** The IC50 was 3.4 nM.
